Three compounds from patent US20200121677A1, “SUBSTITUTED 6,7-DIHYDROPYRAZOLO[1,5-a]PYRAZINES AS NEGATIVE ALLOSTERIC MODULATORS OF MGLUR2 RECEPTORS” (Janssen Pharmaceutica NV, priority 2014, published 2020) can be followed below.

Molecules are shown by their SMILES. Read-outs that look alike come from different tables or passages of the source.

The subject of one data set is Male Wiga Wistar rats. The experiment in a line: Reversal of LY-404039-induced decrease of palpebral opening in apomorphine-challenged rats. It counts as in vivo, rat. The following applies: Rattus norvegicus; rats, route PO (route cell empty for Co. 88 and 84); read-out: ED50 APO LY-404039 (Reversal of LY-404039-induced decrease of palpebral opening in apomorphine challenged rats). The method, then: 1) Reversal of LY-404039-Induced Decrease of Palpebral Opening in Apomorphine-Challenged Rats.
Male Wiga Wistar rats (Crl:WI; Charles River Germany; 220±40 g) were housed under standard laboratory conditions (21±2° C.; 50-65% relative humidity; light-dark cycle set at 12 h; lights on at 6.00 h) and fasted overnight prior to the start of the experiments (tap water remained available ad libitum). During the test period, they were housed in individual cages. Palpebral opening was scored every 5 min over the first hour after injection of apomorphine (1.0 mg/kg, i.v.) in animals either pretreated or not pretreated with LY-404039 (2.5 mg/kg, s.c.) at 1 h prior to the apomorphine injection. The animals were also pretreated with test compound or solvent at a predefined interval before apomorphine challenge. The score system was: (5) exophthalmos, (4) wide open, (3) open for three-quarters, (2) half open, (1) open for one-quarter, (0) closed. The scores for palpebral opening were cumulated over the 60-min observation period.

The next data set deals with rats. The data set can be described thus: Reversal of the effect of the mGluR2 PAM JNJ-42153605-induced inhibition of scopolamine-induced hyperlocomotion. It counts as in vivo, rat. The following applies: Rattus norvegicus; rats, route PO, criterion total distance >1500 cm; read-out: ED50 SCOP JNJ-42153605 (Reversal of the effect of JNJ 42153605 on scopolamine-induced hyperlocomotion). Put shortly: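 Rats dosed with test compound 60 min pre-recording, challenged with JNJ-42153605 (20 mg/kg, i.v.) at 30 min and scopolamine (0.16 mg/kg, i.v.) just before recording. Total distance travelled over first 30 min video-tracked under 4–8 lux. All-or-none reversal criterion: total distance >1500 cm.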

Another data set has as its system Wiga rats. The experiment in a line: Induction of mydriasis (pupil diameter, test 1 and test 2). It counts as in vivo, rat. The following applies: Rattus norvegicus, route PO. On the procedure: 3) Induction of Mydriasis
The pupil diameter of Wiga rats was measured with a microscopic micrometer (1 unit=1/24 mm). Criteria for drug-induced effects: pupil diameter >25 units for mydriasis (in controls: 1.9%) 1 h post-administration of the test compound (test 1) or 1, 2 or 3 h post-administration of the test compound (test 2, wherein the maximum pupil diameter over the full 3 h period is reported).

A further data set has as its target human mGlu2 receptor (Homo sapiens, UniProt Q14416). The data set can be described thus: [35S]GTPγS binding assay, mGluR2 negative allosteric modulation (membranes from CHO cells transfected with human mGlu2 receptor, glutamate ~EC80 60 μM).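 As to all read-outs here: membranes preincubated 30 min at 30 °C with compound plus glutamate, then [35S]GTPγS (0.1 nM) incorporation measured over another 30 min at 30 °C.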 The following applies: for IC50: GTPγS - hmGluR2 anGT pIC50, membranes with human mGlu2 receptor, glutamate ~EC80 (60 μM), pIC50 = -log IC50 (M); for Emax: read-out: GTPγS - hmGluR2 anGT Emax, relative maximal effect: maximal % inhibition relative to the control glutamate response. In general terms: Binding of GTPγS marks nucleotide exchange on a G protein.

Setting [1] is: pupil diameter >25 units, maximum over 1, 2 or 3 h post-administration, read-out: ED50 MYD Test 2 (Induction of mydriasis).

human mGlu2 receptor, sequence (Q14416 19-872): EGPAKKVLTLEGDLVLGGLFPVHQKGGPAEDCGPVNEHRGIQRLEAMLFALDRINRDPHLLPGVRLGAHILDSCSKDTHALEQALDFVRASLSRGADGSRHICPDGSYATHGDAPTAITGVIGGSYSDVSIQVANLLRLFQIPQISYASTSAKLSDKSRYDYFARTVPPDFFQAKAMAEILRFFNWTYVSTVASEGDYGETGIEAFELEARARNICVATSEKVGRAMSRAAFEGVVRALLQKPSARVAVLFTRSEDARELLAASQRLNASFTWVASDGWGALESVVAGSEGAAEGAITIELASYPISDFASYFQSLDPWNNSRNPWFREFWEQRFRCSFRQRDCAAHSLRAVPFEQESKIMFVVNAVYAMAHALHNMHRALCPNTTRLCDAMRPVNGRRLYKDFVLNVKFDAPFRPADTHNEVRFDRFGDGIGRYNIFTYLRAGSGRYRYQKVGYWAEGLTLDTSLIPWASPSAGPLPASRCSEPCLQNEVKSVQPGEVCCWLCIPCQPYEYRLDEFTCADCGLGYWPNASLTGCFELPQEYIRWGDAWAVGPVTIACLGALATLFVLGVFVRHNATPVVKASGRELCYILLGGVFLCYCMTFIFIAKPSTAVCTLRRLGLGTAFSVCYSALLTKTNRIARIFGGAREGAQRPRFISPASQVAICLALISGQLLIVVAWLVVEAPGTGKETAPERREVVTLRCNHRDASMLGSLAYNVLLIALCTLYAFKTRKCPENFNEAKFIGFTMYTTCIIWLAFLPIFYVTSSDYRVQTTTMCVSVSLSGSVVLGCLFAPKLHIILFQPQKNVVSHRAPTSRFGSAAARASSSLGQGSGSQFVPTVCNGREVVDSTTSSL
Procedure for human mGlu2 receptor: The [^35S]GTPγS binding assay is a functional membrane-based assay used to study G-protein coupled receptor (GPCR) function whereby incorporation of a non-hydrolysable form of GTP, [^35S]GTPγS (guanosine 5′-triphosphate, labelled with gamma-emitting ^35S), is measured. […] Here we describe the use of the [^35S]GTPγS binding assay using membranes from cells transfected with the human mGlu2 receptor and adapted from Schaffhauser et al. (Molecular Pharmacology, 2003, 4:798-810) for the detection of the negative allosteric modulation (NAM) properties of the compounds of this invention.
CHO-cells were cultured to pre-confluence and stimulated with 5 mM butyrate for 24 h. Cells were then collected by scraping in PBS and cell suspension was centrifuged (10 min at 4000 RPM in benchtop centrifuge). Supernatant was discarded and pellet gently resuspended in 50 mM Tris-HCl, pH 7.4 by mixing with an Ultra Turrax homogenizer. The suspension was centrifuged at 12,400 RPM (Sorvall F14S-6x250Y) for 10 minutes and the supernatant discarded. The pellet was homogenized in 5 mM Tris-HCl, pH 7.4 using an Ultra Turrax homogenizer and centrifuged again (13,000 RPM, 20 min, 4° C.). The final pellet was resuspended in 50 mM Tris-HCl, pH 7.4 and stored at −80° C. in appropriate aliquots before use. Protein concentration was determined by the Bradford method (Bio-Rad, USA) with bovine serum albumin as standard.
Measurement of mGluR2 negative allosteric modulatory activity of test compounds was performed as follows. Test compounds and glutamate were diluted in assay buffer containing 10 mM HEPES acid, 10 mM HEPES salt, pH 7.4, 100 mM NaCl, 3 mM MgCl2 and 10 μM GDP. Human mGlu2 receptor-containing membranes were thawed on ice and diluted in assay buffer supplemented with 18 μg/ml saponin. Membranes were pre-incubated with compound together with a predefined (˜EC80) concentration of glutamate (60 μM) for 30 min at 30° C. After addition of [^35S]GTPγS (f.c. 0.1 nM), assay mixtures were shaken briefly and further incubated to allow [^35S]GTPγS incorporation on activation (30 minutes, 30° C.). Final assay mixtures contained 7 μg of membrane protein in 10 mM HEPES acid, 10 mM HEPES salt, pH 7.4, 100 mM NaCl, 3 mM MgCl2, 10 μM GDP and 10 μg/ml saponin. Total reaction volume was 200 μl. Reactions were terminated by rapid filtration through Unifilter-96 GF/B plates (Perkin Elmer, Massachusetts, USA) using a 96-well filtermate universal harvester. Filters were washed 6 times with ice-cold 10 mM NaH2PO4/10 mM Na2HPO4, pH 7.4. Filters were then air-dried, and 30 μl of liquid scintillation cocktail (Microscint-O) was added to each well. Membrane-bound radioactivity was counted in a Topcount.
Data were calculated as % of the control glutamate response, defined as the response that is generated upon addition of an EC80-equivalent concentration of glutamate.

The compound `C[C@H]1CN(c2ccc(C(F)(F)F)cc2)C(=O)c2c(C(=O)Nc3ccccn3)cnn21` [compound 9] came in with a melting point of 246.7 °C. Further, in the data set with Male Wiga Wistar rats, the ED50 was over 2.5 mg/kg. Also, the ED50 with rats is 0.32 mg/kg. Further, the ED50 with Wiga rats (setting [1]) was over 10 mg/kg. In addition, on human mGlu2 receptor, the IC50 is 1.12e-08 M and the Emax came out at 103%.

For `C[C@H]1CN(c2ccc(C(F)(F)F)cc2)C(=O)c2c(C(=O)Nc3cccnc3)cnn21` [compound 1, (7S)-7-methyl-4-oxo-N-(3-pyridyl)-5-[4-(trifluoromethyl)phenyl]-6,7-dihydropyrazolo[1,5-a]pyrazine-3-carboxamide], the melting point was 167.35 °C. Further, in the data set with Male Wiga Wistar rats, the ED50 is 0.39 mg/kg. Besides, the ED50 with rats came out at 0.2 mg/kg. Also, in the data set on Wiga rats (setting [1]), the ED50 was over 40 mg/kg. In addition, on human mGlu2 receptor, the IC50 is 1.91e-09 M and the Emax was 111%.

`Cc1cc(NC(=O)c2cnn3c2C(=O)N(c2ccc(C(F)(F)F)cc2)C[C@@H]3C)ccn1` [compound 5] showed a melting point of 215 °C. In the data set with Male Wiga Wistar rats, the ED50 stood at 0.32 mg/kg. The ED50 with rats stood at 1.27 mg/kg. Moreover, the ED50 with Wiga rats (pupil diameter >25 units 1 h post-administration, read-out: ED50 MYD Test 1 (Induction of mydriasis)) was over 10 mg/kg. At human mGlu2 receptor, the IC50 is 3.02e-09 M and the Emax turned out to be 105%.

The term ED50 denotes the dose at which the effect has come halfway, by size or by number of responders. As usually defined, the melting point is the temperature, or range, at which the solid turns liquid. Usually IC50 stands for the concentration needed to halve the response being measured. As a reminder, the Emax is the greatest response seen or fitted, relative to the assay's reference.
